Test results published in patent US11964971B2, “Methods and compositions for modulating splicing” (Skyhawk Therapeutics, Inc., priority 2019, dated 2024).

Key:
MDR1 = assay: in vitro; details: dog; for Papp A→B at 120 min, 5 μM: MDCK-MDR1, pH 7.4, MDCK-MDR1: Papp A-B (10^−6, cm/s); for Papp B→A at 120 min, 5 μM: MDCK-MDR1, pH 7.4, MDCK-MDR1: Papp B-A (10^−6, cm/s)
[1] = system: MDR1-MDCK cell monolayers; details: dog, MDCK-MDR1, 120 min, 5 μM, pH 7.4
MDR1 (P-gp) = assay: MDCK-MDR1 permeability assay, blood-brain-barrier penetration potential; details: dog, MDCK-MDR1, pH 7.4, MDCK-MDR1 Efflux Ratio
SMN protein = SMN protein assay (MSD) in SMA patient fibroblasts (GM03813); type: cell-based, human
How it was run: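 SMA patient fibroblasts GM03813 (7000 cells/well) treated 48 h with compounds from 2.5 μM to 0.6 nM. Lysate SMN protein quantified by MSD immunoassay against an SMN standard curve (1 to 19.5 μg/ml) on each plate, giving absolute amounts.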

Row | SMILES | Papp A→B at 120 min, 5 μM (MDR1) [×10⁻⁶ cm/s] | Papp B→A at 120 min, 5 μM (MDR1) [×10⁻⁶ cm/s] | MDCK-MDR1: % Recov A-B (%) [1] [%] | MDCK-MDR1: % Recov B-A (%) [1] [%] | efflux ratio at 120 min, 5 μM (MDR1 (P-gp)) | EC50 (SMN protein) [nM]
1 | Cc1nc(-c2ccc(-c3cnc(N(C)[C@H]4C[C@@H]5CCC(N5)[C@H]4F)cn3)c(O)c2)no1 (single isomer, unassigned) [Compound 69E2] | 9.26 | 20.3 | 47 | 62 | 2 | 101 to 500
2 | CN(c1cnc(-c2ccc(-c3cnn(C)c3)cc2O)cn1)[C@@H]1CC2COC[C@H](N2)[C@@H]1F (single isomer, unassigned) [Compound 73E1] | 11.5 | 38.1 | 50 | 71 | 3 | 101 to 500
3 | CN(c1cnc(-c2ccc(-c3cnn(C)c3)cc2O)cn1)[C@H]1C[C@@H]2COCC(N2)[C@H]1F (single isomer, unassigned) [Compound 73E2] | 9.34 | 49.1 | 51 | 74 | 5 | 501 to 10000
4 | COc1cc(-c2ccc(-c3cnc(N(C)[C@@H]4CC5COC[C@H](N5)[C@@H]4F)cn3)c(O)c2)cnn1 (single isomer, unassigned) [Compound 74E1] | 1.87 | 45.5 | 88 | 98 | 24 | 501 to 10000
5 | CN(c1cnc(-c2ccc(-c3cc[nH]c(=O)c3)cc2O)cn1)[C@@H]1CC2CC[C@H](N2)[C@@H]1F (single isomer, unassigned) [Compound 76E1] | 0.29 | 30.1 | 89 | 75 | 102 | 51 to 100
6 | Cc1cc(-c2ccc(-c3cnc(N(C)[C@@H]4CC5CC[C@H](N5)[C@@H]4F)cn3)c(O)c2)cc(=O)[nH]1 (single isomer, unassigned) [Compound 77E1] | 0.34 | 21.9 | 64 | 71 | 64 | 501 to 10000
7 | Cc1cc(-c2ccc(-c3cnc(N(C)[C@H]4C[C@@H]5CCC(N5)[C@H]4F)cn3)c(O)c2)cc(=O)[nH]1 (single isomer, unassigned) [Compound 77E2] | 0.32 | 14.9 | 44 | 50 | 47 | 501 to 10000
8 | CN(c1cnc(-c2ccc(C3=CC(=O)NC3)cc2O)cn1)[C@@H]1CC2CC[C@H](N2)[C@@H]1F (single isomer, unassigned) [Compound 78E1] | 0.77 | 41 | 81 | 85 | 53 | 501 to 10000
9 | CN(c1cnc(-c2ccc(-c3nnco3)cc2O)cn1)[C@@H]1CC2CC[C@H](N2)[C@@H]1F (single isomer, unassigned) [Compound 80E1] | 5.24 | 21.5 | 63 | 76 | 4 | 101 to 500
10 | CN(c1cnc(-c2ccc(-c3nnco3)cc2O)cn1)[C@H]1C[C@@H]2CCC(N2)[C@H]1F (single isomer, unassigned) [Compound 80E2] | 8.23 | 30.8 | 73 | 80 | 4 | 501 to 10000
11 | CN(c1cnc(-c2ccc(-c3cc[nH]c(=O)c3)cc2O)cn1)[C@@H]1CC2COC[C@H](N2)[C@@H]1F (single isomer, unassigned) [Compound 82E1] | 0.51 | 39.2 | 83 | 87 | 77 | 501 to 10000
12 | CN(c1cnc(-c2ccc(-c3cc[nH]c(=O)c3)cc2O)cn1)[C@H]1C[C@@H]2COCC(N2)[C@H]1F (single isomer, unassigned) [Compound 82E2] | 0.27 | 32.2 | 45 | 54 | 120 | 501 to 10000
13 | CN(c1cnc(-c2ccc(C3=CCOC3)cc2O)cn1)[C@@H]1CC2CC[C@H](N2)[C@@H]1F (single isomer, unassigned) [Compound 84E1] | 3.01 | 7.82 | 26 | 59 | 3 | 501 to 10000
14 | CN(c1cnc(-c2ccc(C3=CCOC3)cc2O)cn1)[C@H]1C[C@@H]2CCC(N2)[C@H]1F (single isomer, unassigned) [Compound 84E2] | 4.64 | 14.9 | 28 | 66 | 3 | 16 to 50
15 | C[C@@]12CC[C@@](C)(N1)[C@@H](F)[C@@H](Oc1cnc(-c3ccc(-c4cn[nH]c4)cc3O)cn1)C2 [Compound 2E1, 2-(5-(((1R,2R,35,5S)-2-fluoro-1,5-dimethyl-8-azabicyclo[3.2.1]octan-3-yl)oxy)pyrazin-2-yl)-5-(1H-pyrazol-4-yl)phenol] | 7.93 | 40.7 | 71 | 86 | 5 | 501 to 10000
16 | C[C@]12CC[C@](C)(N1)[C@H](F)[C@H](Oc1cnc(-c3ccc(-c4cn[nH]c4)cc3O)cn1)C2 [Compound 2E2, 2-(5-(((1S,2S,3R,5R)-2-fluoro-1,5-dimethyl-8-azabicyclo[3.2.1]octan-3-yl)oxy)pyrazin-2-yl)-5-(1H-pyrazol-4-yl)phenol] | 9.6 | 34.7 | 71 | 79 | 4 | 501 to 10000
17 | CN(c1cnc(-c2ccc(-c3cnn(C)c3)cc2O)cn1)[C@@H]1C[C@H]2CCC[C@H](N2)[C@@H]1F [Compound 4E1, 2-(5-(((1S,2S,3R,5R)-2-fluoro-9-azabicyclo[3.3.1]nonan-3-yl)(methyl)amino)pyrazin-2-yl)-5-(1-methyl-1H-pyrazol-4-yl)phenol] | 4.89 | 31.4 | 44 | 66 | 6 | 51 to 100
18 | CN(c1cnc(-c2cc3ncn(CC(F)(F)F)c(=O)c3cc2O)cn1)[C@H]1C[C@@H]2CCC[C@@H](N2)[C@H]1F [Compound 18E2, 7-(5-(((1R,2R,3S,5S)-2-fluoro-9-azabicyclo[3.3.1]nonan-3-yl)(methyl)amino)pyrazin-2-yl)-6-hydroxy-3-(2,2,2-trifluoroethyl)quinazolin-4(3H)-one] | 1.33 | 73.5 | 82 | 87 | 56 | 501 to 10000
19 | CN(c1cnc(-c2ccc(-c3cn[nH]c3)cc2O)cn1)[C@@H]1C[C@@]2(C)CCC[C@](C)(N2)[C@@H]1F [Compound 23E1, 2-(5-(((1S,2R,3R,5R)-2-fluoro-1,5-dimethyl-9-azabicyclo[3.3.1]nonan-3-yl)(methyl)amino)pyrazin-2-yl)-5-(1H-pyrazol-4-yl)phenol] | 9.07 | 38.7 | 56 | 78 | 4 | 501 to 10000
